Reference: US20260265694A1, “USE OF A VITISIN COMPOUND FOR THE PRODUCTION OF HEMATOPOIETIC CELLS” (ETABLISSEMENT FRANCAIS DU SANG, priority 2022, published 2026)

Test system: CMP isolated from peripheral blood CD34+ cells
Experiment: ERYTHRO 1 PROTOCOL on sorted CMP cells
Format: cell-based, human
Conditions: CMPs, 10 μM
Experimental: b. Isolation of CMP and MEP Progenitors The CD34^+ cells previously isolated via an immunomagnetic technique were marked with anti-CD34-BV421 (1:100 000), anti-CD45RA-BB517 (1:100 000), anti-CD123-Alexa647 (1.5:100 000) antibodies (BD Pharmingen) and a cocktail of anti-LIN-PE antibodies (2:100 000) for 15 minutes. The LIN cocktail antibodies are directed against markers specific to mature cells (CD2, CD3, CD4, CD7, CD8, CD10, CD11b, CD14, CD19, CD20, CD56, CD235a). This LIN cocktail thus allows enrichment in “LIN^neg” immature cells by depletion of mature cells. After incubation with these antibodies, the cells are rinsed with a solution of PBS^+ (PBS+2% Fetal Calf Serum (FCS)) and centrifuged (430×g, 10 min. 4° C.). After resuspension of the cells in PBS^+, CMPs with the phenotype CD34^+LIN^negCD123^+CD45RA^neg and MEPs with the phenotype CD34^+LIN^negCD123^negCD45RA^neg are sorted and harvested using an ARIA cell sorter (Manz et al., 2002). c. Isolation of BFU-E and CFU-E Progenitors Placental blood CD34^+ cells, previously isolated by immunomagnetic sorting, are marked with antibodies specific to surface antigens allowing them to target and discriminate BFU-E primitive erythrocyte progenitors, namely anti-CD34, anti-GPA, anti CD123 and anti-CD36 antibodies. Primitive erythrocyte progenitors (BFU-Es) are defined by the following phenotype: CD34^+CD123^negCD36^negGPA^neg. […]

Oc1ccc(C2Oc3ccc(/C=C/c4cc(O)cc5c4[C@H](c4cc(O)cc(O)c4)[C@@H](c4ccc(O)cc4)O5)cc3C2c2cc(O)cc3c2C(c2cc(O)cc(O)c2)C(c2ccc(O)cc2)O3)cc1 (stereo in doubt) [vitisin B, 5-[(2R,2'S,3R,3'S)-5-[(1E)-2-[(2S,3S)-3-(3,5-Dihydroxyphenyl)-2,3-dihydro-6-hydroxy-2-(4-hydroxyphenyl)-4-benzofuranyl]ethenyl]-2,2′,3,3′-tetrahydro-6′-hydroxy-2,2′-bis(4-hydroxyphenyl)[3,4′-bibenzofuran]-3′-yl]-1,3-benzenediol]
erythrocyte differentiation (acquisition of the phenotype CD71+GPA+) (FIG. 4A): acceleration of erythrocyte differentiation
reduction relative to the control in CD71 membrane expression (as early as D7, FIG. 4B): up to 40%
